Reference: patent EP0013067A1, “Bicyclic beta-lactam antibacterial agents, their use in pharmaceutical compositions, processes for their preparation and intermediates for use in such processes” (BEECHAM GROUP PLC, priority 1978, dated 1980)
Where two headings read alike, the source gives them in different places.

Tests used:
Assay type in all cases: cell-based
Bacillus subtilis A = test: MIC, DST agar + 10% horse blood; details: read-out: MIC Agar
Source text: (§1) The ninimum inhibitory concentrations (MIC) cf this compound required to inhibit the growth of various bacteria are tabulated balow: […]

Citrobacter freundii E8 = test: MIC, DST agar + 10% horse blood
Source text: as §1

E. coli ESS = test: MIC, DST agar + 10% horse blood; details: Escherichia coli, inoculum 0.001 ml of an undilute overnight broth culture
Source text: as §1

Enterobacter cloacae N1 = test: MIC, DST agar + 10% horse blood; details: Enterobacter cloacae, N1, read-out: MIC Agar
Source text: as §1

Escherichia coli 0111 [1] = test: MIC, DST agar + 10% horse blood; details: Escherichia coli 0111, inoculum 0.001 ml of an undilute overnight broth culture
Source text: as §1

Escherichia coli JT 39 [2] = test: MIC, DST agar + 10% horse blood
Source text: as §1

Klebsiella aerogenes A [3] = test: MIC, DST agar + 10% horse blood; details: read-out: MIC Agar
Source text: as §1

Proteus mirabilis C977 [4] = test: MIC, DST agar + 10% horse blood
Source text: as §1

Proteus morganii I580 = test: MIC, DST agar + 10% horse blood; details: Morganella morganii
Source text: as §1

Proteus rettgeri WM16 = test: MIC, DST agar + 10% horse blood; details: Providencia rettgeri
Source text: as §1

Proteus vulgaris W091 = test: MIC, DST agar + 10% horse blood
Source text: as §1

Pseudomonas aeruginosa A [5] = test: MIC, DST agar + 10% horse blood; details: read-out: MIC Agar
Source text: as §1

[6] = test system: Salmonella typhimurium CT10; test: MIC, DST agar + 10% horse blood; details: Salmonella enterica, read-out: MIC Agar
Source text: as §1

Serratia marcescens US20 = test: MIC, DST agar + 10% horse blood
Source text: as §1

Shigella sonnei MB 11967 = test: MIC, DST agar + 10% horse blood; details: MB11967, inoculum 0.001 ml of an undilute overnight broth culture
Source text: as §1

[7] = test system: Staphylococcus aureus 1517; test: MIC, DST agar + 10% horse blood
Source text: as §1

[8] = test system: Staphylococcus aureus Oxford; test: MIC, DST agar + 10% horse blood; details: read-out: MIC Agar
Source text: as §1

[9] = test system: Staphylococcus aureus Russell; test: MIC, DST agar + 10% horse blood; details: read-out: MIC Agar
Source text: as §1

Streptococcus faecalis I = test: MIC, DST agar + 10% horse blood; details: Enterococcus faecalis, read-out: MIC Agar
Source text: as §1

[10] = test system: Streptococcus pneumoniae CN33; test: MIC, DST agar + 10% horse blood
Source text: as §1

[11] = test system: Streptococcus pyogenes CN10; test: MIC, DST agar + 10% horse blood
Source text: as §1

Escherichia coli 0111 [12] = test: MIC, microtitre using Nutrient broth; details: Microtitre using Nutrient broth, inoculum 0.001 ml of an undilute overnight broth culture
Source text: as §1

Escherichia coli JT 39 [13] = test: MIC, microtitre using Nutrient broth
Source text: as §1

Klebsiella aerogenes A [14] = test: MIC, microtitre using Nutrient broth; details: read-out: MIC Broth
Source text: as §1

Proteus mirabilis C977 [15] = test: MIC, microtitre using Nutrient broth
Source text: as §1

Pseudomonas aeruginosa A [16] = test: MIC, microtitre using Nutrient broth; details: read-out: MIC Broth
Source text: as §1

[17] = test system: Staphylococcus aureus Oxford; test: MIC, microtitre using Nutrient broth; details: read-out: MIC Broth
Source text: as §1

[18] = test system: Staphylococcus aureus Russell; test: MIC, microtitre using Nutrient broth; details: read-out: MIC Broth
Source text: as §1

[19] = antibacterial activity (general statement, no method given); details: prepared and tested by the applicant; no method or organisms given
[20] = Citrobacter freundii, E8, read-out: MIC Agar
[21] = Escherichia coli, JT39, read-out: MIC Agar
[22] = Proteus mirabilis, C977, read-out: MIC Agar
[23] = Proteus vulgaris, W091, read-out: MIC Agar
[24] = Serratia marcescens, US20, read-out: MIC Agar
[25] = Staphylococcus aureus, 1517, read-out: MIC Agar
[26] = Streptococcus pneumoniae, CN33, read-out: MIC Agar
[27] = Streptococcus pyogenes, CN10, read-out: MIC Agar
[28] = Escherichia coli, JT39, read-out: MIC Broth
[29] = Proteus mirabilis, C977, read-out: MIC Broth
[30] = Bacillus subtilis A, DST agar + 10% horse blood, inoculum 0.001 ml of an undilute overnight broth culture
[31] = Staphylococcus aureus Oxford, DST agar + 10% horse blood, inoculum 0.001 ml of an undilute overnight broth culture
[32] = Staphylococcus aureus Russell, DST agar + 10% horse blood, inoculum 0.001 ml of an undilute overnight broth culture
[33] = Streptococcus pyogenes CN10, DST agar + 10% horse blood, inoculum 0.001 ml of an undilute overnight broth culture, read-out: MIC Agar
[34] = Staphylococcus aureus Oxford, Microtitre using Nutrient broth, inoculum 0.001 ml of an undilute overnight broth culture
[35] = Staphylococcus aureus Russell, Microtitre using Nutrient broth, inoculum 0.001 ml of an undilute overnight broth culture

CC(=O)NCOCC1=C(C(=O)[O-])N2C(=O)C[C@H]2S1.[Na+] [compound 29, Sodium 2-acetamidomethoxymethylpenem-3-carboxylate]
MIC (Bacillus subtilis A; Bacillus subtilis): 1.2 µg/mL
MIC (Citrobacter freundii E8; [20]): 5 µg/mL
MIC (E. coli ESS): 2.5 µg/mL
MIC (Enterobacter cloacae N1): > 50 µg/mL
MIC (Escherichia coli 0111 [1]): 5 µg/mL
MIC (Escherichia coli JT 39 [2]; [21]): > 50 µg/mL
MIC (Klebsiella aerogenes A [3]; Klebsiella aerogenes): 50 µg/mL
MIC (Proteus mirabilis C977 [4]; [22]): 12.5 µg/mL
MIC (Proteus morganii I580; I580, read-out: MIC Agar): > 50 µg/mL
MIC (Proteus rettgeri WM16; WM16, read-out: MIC Agar): 50 µg/mL
MIC (Proteus vulgaris W091; [23]): > 50 µg/mL
MIC (Pseudomonas aeruginosa A [5]; Pseudomonas aeruginosa): > 50 µg/mL
MIC ([6]; TYPHIMURIUM): 5 µg/mL
MIC (Serratia marcescens US20; [24]): 25 µg/mL
MIC (Shigella sonnei MB 11967): 5 µg/mL
MIC [7, 25]: 50 µg/mL
MIC ([8]; Staphylococcus aureus): 2.5 µg/mL
MIC ([9]; Staphylococcus aureus): 12.5 µg/mL
MIC (Streptococcus faecalis I): 50 µg/mL
MIC [10, 26]: 0.2 µg/mL
MIC [11, 27]: 0.5 µg/mL
MIC (Escherichia coli 0111 [12]): 16 µg/mL
MIC (Escherichia coli JT 39 [13]; [28]): 125 µg/mL
MIC (Klebsiella aerogenes A [14]; Klebsiella aerogenes): 62 µg/mL
MIC (Proteus mirabilis C977 [15]; [29]): 31 µg/mL
MIC (Pseudomonas aeruginosa A [16]; Pseudomonas aeruginosa): > 500 µg/mL
MIC ([17]; Staphylococcus aureus): 8 µg/mL
MIC ([18]; Staphylococcus aureus): 16 µg/mL

O=C(O)C1=CSC2CC(=O)N12 (stereo not drawn)
antibacterial activity [19]: somewhat disappointing degree of antibacterial activity

COCOCC1=C(C(=O)[O-])N2C(=O)C[C@H]2S1.[Na+] [compound 25, Sodium 2-methoxymethoxymethylpenem-3-carboxylate]
MIC (Bacillus subtilis A; Bacillus subtilis): 1.2 µg/mL
MIC (Citrobacter freundii E8; [20]): 12.5 µg/mL
MIC (E. coli ESS): 2.5 µg/mL
MIC (Enterobacter cloacae N1): > 50 µg/mL
MIC (Escherichia coli 0111 [1]): 5 µg/mL
MIC (Escherichia coli JT 39 [2]; [21]): > 50 µg/mL
MIC (Klebsiella aerogenes A [3]; Klebsiella aerogenes): 25 µg/mL
MIC (Proteus mirabilis C977 [4]; [22]): 12.5 µg/mL
MIC (Proteus morganii I580; I580, read-out: MIC Agar): > 50 µg/mL
MIC (Proteus rettgeri WM16; WM16, read-out: MIC Agar): 25 µg/mL
MIC (Proteus vulgaris W091; [23]): > 50 µg/mL
MIC (Pseudomonas aeruginosa A [5]; Pseudomonas aeruginosa): > 50 µg/mL
MIC ([6]; TYPHIMURIUM): 5 µg/mL
MIC (Serratia marcescens US20; [24]): 25 µg/mL
MIC (Shigella sonnei MB 11967): 5 µg/mL
MIC [7, 25]: > 50 µg/mL
MIC ([8]; Staphylococcus aureus): 2.5 µg/mL
MIC ([9]; Staphylococcus aureus): 5 µg/mL
MIC (Streptococcus faecalis I): 50 µg/mL
MIC [10, 26]: 0.2 µg/mL
MIC [11, 27]: 0.5 µg/mL
MIC (Escherichia coli 0111 [12]): 16 µg/mL
MIC (Escherichia coli JT 39 [13]; [28]): 125 µg/mL
MIC (Klebsiella aerogenes A [14]; Klebsiella aerogenes): 16 µg/mL
MIC (Proteus mirabilis C977 [15]; [29]): 16 µg/mL
MIC (Pseudomonas aeruginosa A [16]; Pseudomonas aeruginosa): 500 µg/mL
MIC ([17]; Staphylococcus aureus): 2 µg/mL
MIC ([18]; Staphylococcus aureus): 8 µg/mL

CC(=O)NCCOCC1=C(C(=O)O)N2C(=O)CC2S1 (stereo not drawn) [compound 23, Sodium 2-(2-acetamidoethoxy)methylponom-3-carooxylate]
MIC (Bacillus subtilis A; [30]): 2.5 µg/mL
MIC (Citrobacter freundii E8; Citrobacter freundii E8, DST agar + 10% horse blood, inoculum 0.001 ml of an undilute overnight broth culture, read-out: MIC Agar): 25 µg/mL
MIC (E. coli ESS): 10 µg/mL
MIC (Escherichia coli 0111 [1]): 25 µg/mL
MIC (Escherichia coli JT 39 [2]; JT39, Escherichia coli JT 39, DST agar + 10% horse blood, inoculum 0.001 ml of an undilute overnight broth culture, read-out: MIC Agar): > 100 µg/mL
MIC (Klebsiella aerogenes A [3]; Klebsiella aerogenes A, DST agar + 10% horse blood, inoculum 0.001 ml of an undilute overnight broth culture): 100 µg/mL
MIC (Proteus mirabilis C977 [4]; Proteus mirabilis C977, DST agar + 10% horse blood, inoculum 0.001 ml of an undilute overnight broth culture, read-out: MIC Agar): 25 µg/mL
MIC (Proteus morganii I580; Proteus morganii I580, DST agar + 10% horse blood, inoculum 0.001 ml of an undilute overnight broth culture, read-out: MIC Agar): > 100 µg/mL
MIC (Proteus rettgeri WM16; Proteus rettgeri WM16, DST agar + 10% horse blood, inoculum 0.001 ml of an undilute overnight broth culture, read-out: MIC Agar): > 100 µg/mL
MIC (Proteus vulgaris W091; Proteus vulgaris W091, DST agar + 10% horse blood, inoculum 0.001 ml of an undilute overnight broth culture, read-out: MIC Agar): > 100 µg/mL
MIC (Pseudomonas aeruginosa A [5]; Pseudomonas aeruginosa A, DST agar + 10% horse blood, inoculum 0.001 ml of an undilute overnight broth culture): > 100 µg/mL
MIC ([6]; Salmonella typhimurium CT10, DST agar + 10% horse blood, inoculum 0.001 ml of an undilute overnight broth culture): 25 µg/mL
MIC (Serratia marcescens US20; Serratia marcescens US20, DST agar + 10% horse blood, inoculum 0.001 ml of an undilute overnight broth culture, read-out: MIC Agar): 100 µg/mL
MIC ([7]; Staphylococcus aureus 1517, DST agar + 10% horse blood, inoculum 0.001 ml of an undilute overnight broth culture, read-out: MIC Agar): 50 µg/mL
MIC [8, 31]: 2.5 µg/mL
MIC [9, 32]: 25 µg/mL
MIC (Streptococcus faecalis I; Streptococcus faecalis I, DST agar + 10% horse blood, inoculum 0.001 ml of an undilute overnight broth culture): > 100 µg/mL
MIC ([10]; Streptococcus pneumoniae CN33, DST agar + 10% horse blood, inoculum 0.001 ml of an undilute overnight broth culture, read-out: MIC Agar): 0.5 µg/mL
MIC [11, 33]: 1 µg/mL
MIC (Escherichia coli 0111 [12]): 31 µg/mL
MIC (Escherichia coli JT 39 [13]; JT39, Escherichia coli JT 39, Microtitre using Nutrient broth, inoculum 0.001 ml of an undilute overnight broth culture, read-out: MIC Broth): 250 µg/mL
MIC (Klebsiella aerogenes A [14]; Klebsiella aerogenes A, Microtitre using Nutrient broth, inoculum 0.001 ml of an undilute overnight broth culture): 62 µg/mL
MIC (Proteus mirabilis C977 [15]; Proteus mirabilis C977, Microtitre using Nutrient broth, inoculum 0.001 ml of an undilute overnight broth culture, read-out: MIC Broth): 31 µg/mL
MIC (Pseudomonas aeruginosa A [16]; Pseudomonas aeruginosa A, Microtitre using Nutrient broth, inoculum 0.001 ml of an undilute overnight broth culture): > 500 µg/mL
MIC [17, 34]: 4 µg/mL
MIC [18, 35]: 16 µg/mL

CNC(=O)OCC1=C(C(=O)O)N2C(=O)CC2S1 (stereo not drawn) [compound 36, Sodium 2-N-methylcarbamoyloxymethylpenem-3-carboxylate]
MIC (Bacillus subtilis A; [30]): 2.5 µg/mL
MIC [8, 31]: 12.5 µg/mL
MIC [9, 32]: 12.5 µg/mL
MIC [11, 33]: 25 µg/mL
MIC [17, 34]: 8 µg/mL
MIC [18, 35]: 16 µg/mL

CCOC(C)OCC1=C(C(=O)[O-])N2C(=O)C[C@H]2S1.[Na+] (stereo partly drawn) [compound 34, Sodium 2-(1-ethoxyethoxy)methylpenem-3-carboxylate]
MIC ([8]; Staphylococcus aureus): 2.5 µg/mL
MIC ([9]; Staphylococcus aureus): 10 µg/mL
MIC [10, 26]: 1 µg/mL
MIC [11, 27]: 1 µg/mL
